Data on 2 compounds can be found in PMC5064002, “Sintokamide A Is a Novel Antagonist of Androgen Receptor That Uniquely Binds Activation Function-1 in Its Amino-terminal Domain” (The Journal of Biological Chemistry, 2016).

Several values for one entry are separate records, joined by “and”; a condition that tells them apart may be missing. Identical values can stand only once. Like-named read-outs stand apart in the source and are kept apart here.

The Cmax is the maximum level reached in the sampled fluid or tissue. What is called AUC(0-inf) is total exposure, with the tail of the curve extrapolated. Read a low AUC(0-inf) as low exposure. Broadly, the clearance is a measure of how efficiently the substance is removed, as volume per time. What is called Vd is the apparent volume that relates the amount in the body to the concentration in plasma or blood. As a reminder, the half-life is how long it takes for the measured level to halve.

One data set concerns LNCaP cells. Nature of the data set: Cell proliferation (BrdU incorporation), LNCaP. In kind it is cell-based. As to conditions: 0.1 nM R1881, 72 h. As to the method:
Cells were pulse-labeled with 10 μM BrdU for 2 h. Cells were fixed, and BrdU-labeled cells were identified with anti-BrdU-peroxidase (Roche Applied Science). BrdU incorporation was measured at 570 nm using a VersaMax ELISA microplate reader (Molecular Devices). At least three independent experiments with six technical replicates were analyzed, and average values are indicated.

In a further data set the target is T1, recombinant AR LBD (Rattus norvegicus, UniProt P15207).
T1 construct: purchased Invitrogen
T1 sequence (P15207 651-882 limits assumed): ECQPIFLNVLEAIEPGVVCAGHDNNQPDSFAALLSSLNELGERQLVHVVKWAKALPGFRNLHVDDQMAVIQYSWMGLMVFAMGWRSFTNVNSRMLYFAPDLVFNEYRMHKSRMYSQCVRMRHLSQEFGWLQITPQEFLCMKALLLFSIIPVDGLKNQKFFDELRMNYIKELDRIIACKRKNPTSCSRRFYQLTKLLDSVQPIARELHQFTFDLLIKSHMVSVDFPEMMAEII
In words: Fluorescence polarization competition assay (Androgen Receptor Competitor Assay). It counts as binding. Conditions: AR LBD 25 nM, 1 nM Fluormone AL Green; SINT1 and EPI-002 tested at 0.5–50 μM. How it is done:
The Androgen Receptor Competitor Assay (Green) kit (Invitrogen) was used. […] The reactions with serial dilutions of test compounds were completed in 40-μl aliquots in triplicates. Displacement of Fluormone AL Green from AR LBD by the test compounds was measured by the change in fluorescence polarization using Infinite® M1000 (Tecan) with excitation at 470 nm and emission at 535 nm.
To determine whether the mechanism of action of SINT1 to inhibit androgen-induced AR transcriptional activity was mediated by binding to AR LBD, a fluorescence polarization competition assay was used. This assay uses recombinant AR LBD to reveal whether a test compound competes for ligand binding of Fluoromone that binds to this domain.
(In general: Fluorescence polarisation rises when a labelled molecule tumbles more slowly, as on binding a larger partner.)

The target in the next data set is T2, AR-V567es (Homo sapiens, UniProt P10275).
T2 construct: expressed in transfected cells; host or cells: COS-1
T2 sequence (P10275 with tags, fused parts or gaps limits assumed): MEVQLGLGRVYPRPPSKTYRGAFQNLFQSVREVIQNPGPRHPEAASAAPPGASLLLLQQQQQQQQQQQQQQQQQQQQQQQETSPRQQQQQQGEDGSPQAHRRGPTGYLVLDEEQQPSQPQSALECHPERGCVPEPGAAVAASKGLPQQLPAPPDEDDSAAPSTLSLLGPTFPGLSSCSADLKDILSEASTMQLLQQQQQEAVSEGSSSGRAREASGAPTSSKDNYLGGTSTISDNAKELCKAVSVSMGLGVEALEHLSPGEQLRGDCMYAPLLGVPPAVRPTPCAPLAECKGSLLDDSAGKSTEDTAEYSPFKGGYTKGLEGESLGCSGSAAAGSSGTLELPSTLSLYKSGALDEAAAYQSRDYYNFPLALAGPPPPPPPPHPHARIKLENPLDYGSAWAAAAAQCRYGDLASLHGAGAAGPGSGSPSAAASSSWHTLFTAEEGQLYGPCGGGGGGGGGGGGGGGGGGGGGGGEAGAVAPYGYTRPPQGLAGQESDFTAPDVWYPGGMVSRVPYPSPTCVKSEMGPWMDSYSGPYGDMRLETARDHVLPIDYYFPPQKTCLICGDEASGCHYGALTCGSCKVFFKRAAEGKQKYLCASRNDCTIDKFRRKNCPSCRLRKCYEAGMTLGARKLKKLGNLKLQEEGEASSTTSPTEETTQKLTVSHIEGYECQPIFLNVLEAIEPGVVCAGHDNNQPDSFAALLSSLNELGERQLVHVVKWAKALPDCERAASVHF
In words: Transcriptional activity of AR splice variant, PB-luciferase in COS-1 cells. In kind it is cell-based. Conditions: for AR-V567es transcriptional activities (PB-luciferase): COS-1, 20 μM SINT1, 25 μM EPI-002. How it is done:
[…]. Levels of expression of AR variant were determined by Western blotting using 10 μg of total protein extracted from same plates (3 wells per condition) using AR-N20 antibody (1:1000) and goat anti-rabbit HRP-conjugated secondary antibody (Santa Cruz Biotechnology; 1:10,000).

Data set [1] relates to FL-AR- and AR-V7-regulated genes. In words: AR-FL- and AR-V7-regulated gene expression (quantitative RT-PCR) in LNCaP95 cells. It counts as cell-based. How it is done:
At 48 h, total RNA was isolated using a PureLink RNA Mini kit (Invitrogen). For in vivo expression, tumors were harvested 3 days after last treatment, and RNA was extracted using TRIzol. Prior to cDNA generation, 4 μg of RNA were DNase-treated using DNase I (amplification grade; Sigma-Aldrich). DNase-treated RNA was split into two tubes (+RT and −RT), and cDNA was generated using the High Capacity RNA-cDNA kit (Applied Biosystems). Once complete, both reactions were adjusted to 5 ng/μl and stored at −20 °C. Approximately 5 ng of diluted cDNA and gene-specific primers were mixed with Platinum SYBR Green qPCR SuperMix-UDG with ROX (Invitrogen). The transcripts were measured using an ABI PRISM 7900 Sequence Detection System (Invitrogen). For all quantitative RT-PCR experiments, each sample was tested in triplicate, and gene expression levels were normalized to the reference gene RPL13A. Neuron-specific enolase (ENO2) (Gene ID, 2026; pair 1) and synaptophysin (SYP) (Gene ID, 6855; pair 2) human primers were from Sigma Life Science. All other primers were described previously ([4], [9]) and purchased from Integrated DNA Technologies.

A short description of data set [2]: Pharmacokinetics in CD-1 mice. As to conditions: single intravenous dose 50 mg/kg. In kind it is in vivo. As to the method:
Pharmacokinetics assays were performed by NAEJA Pharmaceutical Inc. in a total of 27 CD-1 mice, which received a single intravenous SINT1 dose of 50 mg/kg of body weight. Blood samples were collected during a period of 2.5 min to 8 h postdosing from three mice per time point. Plasma concentrations of SINT1 and pharmacokinetics parameters were determined.

The subject of another data set is PC3 cells. More on the design: method as in PMID 18834139. Conditions: cited from earlier work.
Data set [3] can be described thus: Lability of SINT1 over the course of the studies. It counts as physicochemical. Conditions: activity decreased over the course of the studies. As to the method:
SINT1 is labile, and over the course of completing these studies its activity decreased. […] Therefore, we first evaluated its pharmacokinetics before in vivo studies were carried out to determine dose and route of delivery.

[4] abbreviates: LNCaP95, 10 μM SINT1, 1 nM R1881 48 h.
Where [5] appears, read: mice sets 1-3 and mean ± S.D., mean.

For `CC(C)(c1ccc(OC[C@H](O)CO)cc1)c1ccc(OC[C@H](O)CCl)cc1` [EPI-002, reference compound], in the data set with LNCaP cells, the “androgen-induced proliferation of LNCaP cells” value was “inhibited”. Besides, the “competition with Fluoromone for binding to AR LBD” value at recombinant AR LBD is “did not compete”. On AR-V567es, the “AR-V567es transcriptional activities (PB-luciferase)” value was “significantly inhibited”.

Turning to `CCC(=O)NC(CC(C)C(Cl)(Cl)Cl)C(=O)N1C(=O)C=C(OC)C1CC(C)C(Cl)Cl` (stereo not shown) [SINT1, Sintokamide A], the “androgen-induced transcript of FL-AR-regulated gene RHOU” value in data set [1] (setting [4]) was “exception”. The “androgen-induced transcripts of FL-AR-regulated genes KLK3/PSA, KLK2, TMPRSS2, NKX3.1, FKBP5 and SLC1A1” value in data set [1] (setting [4]) is recorded as “significantly repressed”. The “levels of AR-V7 target gene transcripts cyclin A2, CDC20, UBE2C and CDK1” value in data set [1] (LNCaP95, 10 μM SINT1, 48 h) is recorded as “significantly repressed”. For the same compound, the “levels of AR-V7 transcript” value in data set [1] (LNCaP95, 10 μM SINT1, 48 h) was “no significant effect”. The “levels of FL-AR mRNA” value in data set [1] (LNCaP95, 10 μM SINT1, 48 h, compared with vehicle control) is given as “did not lead to an increase”. Besides, the maximum concentration (Cmax) in data set [2] (CD-1, mouse, plasma, iv, 50 mg/kg, plasma, mice sets 1-3 and mean ± S.D., read-out: Cmax) is 3990 ng/mL; in data set [2] (CD-1, mouse, plasma, iv, 50 mg/kg, read-out: Cmax in plasma), roughly 8 µM; in data set [2] (plasma, mice sets 1-3 and mean ± S.D.) it was 4440 ng/mL and 4030 ng/mL; in data set [2] (plasma, mice sets 1-3 and mean ± S.D., mean), 4150 ± 250 ng/mL. In data set [2] (CD-1, mouse, plasma, iv, 50 mg/kg, mice sets 1-3 and mean ± S.D.), the AUC(0-inf) was 1840 ng·h/mL. The clearance in data set [2] (CD-1, mouse, plasma, iv, 50 mg/kg, mice sets 1-3 and mean ± S.D., read-out: Cl (plasma clearance) (converted)) was 366 mL/min/kg. Also, in data set [2] (CD-1, mouse, plasma, iv, 50 mg/kg, mice sets 1-3 and mean ± S.D., read-out: Vd (volume of distribution)), the Vd is 43.7 L/kg. Further, the half-life in data set [2] (CD-1, mouse, plasma, iv, 50 mg/kg, mice sets 1-3 and mean ± S.D., read-out: t½ (elimination half-life) (converted)) is 1.38 h. The AUCinf in data set [2] (mice sets 1-3 and mean ± S.D.) is 2370 ng·h/mL and 1510 ng·h/mL; in data set [2] (setting [5]), 1900 ± 430 ng·h/mL. The “Cl (plasma clearance)” value in data set [2] (mice sets 1-3 and mean ± S.D.) is 284 mL/min/kg and 446.7 mL/min/kg; in data set [2] (setting [5]), 365.5 ± 81.3 mL/min/kg. Moreover, the “t½ (elimination half-life)” value in data set [2] (mice sets 1-3 and mean ± S.D.) is 1.10 h and 1.01 h; in data set [2] (setting [5]), 1.16 ± 0.19 h. The “androgen-induced proliferation of LNCaP cells” value with LNCaP cells is listed as “inhibited”. In addition, in the data set with PC3 cells, the “effect on PC3 cells that do not depend on AR for growth and survival” value was “no effect”. Besides, the stability entry in data set [3] was “labile”. Further, the “competition with Fluoromone for binding to AR LBD” value at recombinant AR LBD was “did not compete”. Moreover, at AR-V567es, the “AR-V567es transcriptional activities (PB-luciferase)” value is on record as “significantly inhibited”. On AR-V567es (COS-1, Western blot), the “levels of AR-V567es protein” value was “not decreased”.
